Results: patent US20070049564A1 (Wyeth, priority 2005, published 2007)
In brackets after ≈: the same amount, converted by molar mass. Read-outs that look alike come from different tables or passages of the source.

Assays:
S. aureus GC 2216 = test: MIC, broth microdilution; settings: Staphylococcus aureus, GC2216, S. aureus GC 2216
E. coli GC 2232 = test: MIC, broth microdilution; settings: Escherichia coli, GC2232, E. coli GC 2232
S. pneumoniae+ GC 4465 = test: MIC, broth microdilution; settings: Streptococcus pneumoniae, S. pneumoniae+ GC 4465
S. aureus GC 4536 = test: MIC, broth microdilution; settings: Staphylococcus aureus, GC4536, S. aureus GC 4536
Staph. = test: Range of MIC for Staph. strains, including MRSA; settings: Staphylococcus aureus, MRSA
c. albicans GC 3066 = test: MIC, broth microdilution
S. aureus GC 1131 = test: MIC, broth microdilution; settings: Staphylococcus aureus, GC1131, S. aureus GC 1131
E. coli GC 2272 = test: MIC, broth microdilution; settings: Escherichia coli, GC2272, E. coli GC 2272
E. faecalis GC 4555 = test: MIC, broth microdilution; settings: Enterococcus faecalis, GC4555, E. faecalis GC 4555
E. faecalis GC 2267 = test: MIC, broth microdilution; settings: Enterococcus faecalis, GC2267, E. faecalis GC 2267
E. coli GC 2236 = test: MIC, broth microdilution; settings: Escherichia coli, GC2236, E. coli GC 2236
E. faecium GC 2243 = test: MIC, broth microdilution; settings: Enterococcus faecium, GC2243, E. faecium GC 2243
P. aeruginosa GC 2214 = test: MIC, broth microdilution; settings: Pseudomonas aeruginosa, GC2214, P. aeruginosa GC 2214
S. pneumoniae* GC 4465 = test: MIC, broth microdilution; settings: Streptococcus pneumoniae, S. pneumoniae* GC 4465
E. faecalis GC 2242 = test: MIC, broth microdilution; settings: Enterococcus faecalis, GC2242, E. faecalis GC 2242
S. epidermidis GC 4935 = test: MIC, broth microdilution; settings: Staphylococcus epidermidis, GC4935, S. epidermidis GC 4935
E. coli GC 2231 = test: MIC, broth microdilution; settings: Escherichia coli, GC2231, E. coli GC 2231
Description: Antimicrobial susceptibility testing. The in vitro activities of the antibiotics are determined by the broth microdilution method as recommended by the National Committee for Clinical Laboratory Standards (NCCLS) (1). Mueller-Hinton II broth (MHBII)(BBL Cockeysville, Md.) is the medium employed in the testing procedures. Microtiter plates containing serial dilutions of each antimicrobial agent are inoculated with each organism to yield the appropriate density (10^5 CFU/ml) in a 100 μl final volume. The plates are incubated for 18-22 hours at 35° C. in ambient air.
Representative compounds were first incubated in mouse serum for an hour prior to the in vitro testing against a panel of selected gram-positive and gram-negative bacteria strains. All compounds were also pre-incubated in water for an hour prior to testing as control.

E. faecalis GC 2265 = test: MIC, broth microdilution; settings: Enterococcus faecalis, GC2265, E. faecalis GC 2265

CCCN(CC(=O)Nc1cc(N(C)C)c2c(c1O)C(=O)C1=C(O)[C@]3(O)C(=O)C(C(N)=O)=C(O)[C@@H](N(C)C)[C@@H]3C[C@@H]1C2)C(=O)OCC [Example 15, ethyl 2-{[(5aR,6aS,7S,10aS)-9-(aminocarbonyl)-4,7-bis(dimethylamino)-1,8,10a,11-tetrahydroxy-10,12-dioxo-5,5a,6,6a,7,10,10a,12-octahydrotetracen-2-yl]amino}-2-oxoethyl(propyl)carbamate]
MIC (S. aureus GC 2216; Mouse Serum pre-incubation): 2 µg/mL (≈ 3.11 µM)
MIC (S. aureus GC 2216; Water pre-incubation): 4 µg/mL (≈ 6.21 µM)
MIC (E. coli GC 2232; Mouse Serum pre-incubation): > 64 µg/mL
MIC (E. coli GC 2232; Water pre-incubation): > 64 µg/mL
MIC (S. pneumoniae+ GC 4465; Mouse Serum pre-incubation): 4 µg/mL (≈ 6.21 µM)
MIC (S. pneumoniae+ GC 4465; Water pre-incubation): 4 µg/mL (≈ 6.21 µM)
MIC (S. aureus GC 4536; Mouse Serum pre-incubation): 2 µg/mL (≈ 3.11 µM)
MIC (S. aureus GC 4536; Water pre-incubation): 4 µg/mL (≈ 6.21 µM)
MIC (Staph.; read-out: Range of MIC, Staph (Mouse Serum)): 2 to 16 µg/mL (≈ 3.11 to 24.9 µM)
MIC (Staph.; read-out: Range of MIC, Staph (Water)): 4 to 16 µg/mL (≈ 6.21 to 24.9 µM)
MIC (c. albicans GC 3066; Candida albicans, GC3066): > 64 µg/mL
MIC (c. albicans GC 3066; c. albicans GC 3066, Water pre-incubation): >64 UG/ML
MIC (S. aureus GC 1131; Mouse Serum pre-incubation): 2 µg/mL (≈ 3.11 µM)
MIC (S. aureus GC 1131; Water pre-incubation): 4 µg/mL (≈ 6.21 µM)
MIC (E. coli GC 2272; Mouse Serum pre-incubation): > 64 µg/mL
MIC (E. coli GC 2272; Water pre-incubation): > 64 µg/mL
MIC (E. faecalis GC 4555; Mouse Serum pre-incubation): 4 µg/mL (≈ 6.21 µM)
MIC (E. faecalis GC 4555; Water pre-incubation): 8 µg/mL (≈ 12.4 µM)
MIC (E. faecalis GC 2267; Mouse Serum pre-incubation): 8 µg/mL (≈ 12.4 µM)
MIC (E. faecalis GC 2267; Water pre-incubation): 8 µg/mL (≈ 12.4 µM)
MIC (E. coli GC 2236; Mouse Serum pre-incubation): > 64 µg/mL
MIC (E. coli GC 2236; Water pre-incubation): 64 µg/mL (≈ 99.4 µM)
MIC (E. faecium GC 2243; Mouse Serum pre-incubation): 8 µg/mL (≈ 12.4 µM)
MIC (E. faecium GC 2243; Water pre-incubation): 8 µg/mL (≈ 12.4 µM)
MIC (P. aeruginosa GC 2214; Mouse Serum pre-incubation): > 64 µg/mL
MIC (P. aeruginosa GC 2214; Water pre-incubation): > 64 µg/mL
MIC (S. pneumoniae* GC 4465; Mouse Serum pre-incubation): 2 µg/mL (≈ 3.11 µM)
MIC (S. pneumoniae* GC 4465; Water pre-incubation): 2 µg/mL (≈ 3.11 µM)
MIC (E. faecalis GC 2242; Mouse Serum pre-incubation): 8 µg/mL (≈ 12.4 µM)
MIC (E. faecalis GC 2242; Water pre-incubation): 8 µg/mL (≈ 12.4 µM)
MIC (S. epidermidis GC 4935; Mouse Serum pre-incubation): 16 µg/mL (≈ 24.9 µM)
MIC (S. epidermidis GC 4935; Water pre-incubation): 16 µg/mL (≈ 24.9 µM)
MIC (E. coli GC 2231; Mouse Serum pre-incubation): > 64 µg/mL
MIC (E. coli GC 2231; Water pre-incubation): > 64 µg/mL
MIC (E. faecalis GC 2265; Mouse Serum pre-incubation): 8 µg/mL (≈ 12.4 µM)
MIC (E. faecalis GC 2265; Water pre-incubation): 8 µg/mL (≈ 12.4 µM)
